# Entries after “also recorded” stand apart in the source; their conditions may differ.
# Experiments:
# [1] = system: homozygous mutant dopamine transporter knockout (KO) mice; test: Spontaneous activity in the open field, dopamine transporter KO mice; type: in vivo
# Protocol: Male and female wild-type and homozygous mutant dopamine transporter KO mice (n˜10 mice/genotype/agent; produced by in vivo homologous recombination and bred at Duke University Medical Center, Durham, N.C.) were tested for spontaneous activity in the open field following a single injection of the vehicle or compound. […] All drugs were given in a volume of 5 mL/kg. Animals were returned to the open field for an additional 90 min. Spontaneous activity was evaluated in an automated Omnitech Digiscan apparatus (Accuscan Instruments, Columbus, Ohio). Activity was summated at 5 min intervals over the 2 h period of testing. Horizontal activity or locomotion was measured in terms of the total distance covered in cm, vertical activity or rearing was expressed in terms of the total numbers of vertical beam breaks, and stereotypy was quantified in terms of repetitive breaks of a given beam or beams with intervals of less than 1 sec. For the analyses, 10 WT and 10 KO mice were run in each of the treatment groups with approximately equal numbers of males and females assigned to each group. Data were analyzed by the Statistical Package for Social Sciences programs (version 11.0 for Windows; SPSS Science, Chicago, Ill.). The results for each dependent variable were analyzed by repeated analyses of variance (RMANOVA) for within subjects effects (group differences over time) and between-subjects effects (tests of main effects and interactions). Bonferroni corrected pair-wise comparisons were used as the post-hoc tests. A p<0.05 was considered significant.
# wild-type mice = test: Spontaneous activity in the open field, wild-type mice; type: in vivo; conditions: WT mice; 2 mg/kg SC
# Protocol: Male and female wild-type and homozygous mutant dopamine transporter KO mice (n˜10 mice/genotype/agent; produced by in vivo homologous recombination and bred at Duke University Medical Center, Durham, N.C.) were tested for spontaneous activity in the open field following a single injection of the vehicle or compound. Mice were placed into the open field for 30 min and administered SC the vehicle (sterile water), 2 mg/kg amphetamine, or three concentrations of the test compound (10, 30, 100 mg/kg). All drugs were given in a volume of 5 mL/kg. Animals were returned to the open field for an additional 90 min. Spontaneous activity was evaluated in an automated Omnitech Digiscan apparatus (Accuscan Instruments, Columbus, Ohio). […] Horizontal activity or locomotion was measured in terms of the total distance covered in cm, vertical activity or rearing was expressed in terms of the total numbers of vertical beam breaks, and stereotypy was quantified in terms of repetitive breaks of a given beam or beams with intervals of less than 1 sec. […] Data were analyzed by the Statistical Package for Social Sciences programs (version 11.0 for Windows; SPSS Science, Chicago, Ill.). The results for each dependent variable were analyzed by repeated analyses of variance (RMANOVA) for within subjects effects (group differences over time) and between-subjects effects (tests of main effects and interactions). […]
# [2] = system: rats with sciatic nerve ligation; test: Thermal hyperalgesia (hindpaw withdrawal latency, plantar tester) in rats with sciatic nerve ligation; type: in vivo, Sprague-Dawley rats; conditions: 30 mg/kg IP; for Mean paw withdrawal latency: n = 6, mean ± SEM
# Protocol: Young adult male Sprague-Dawley rats (CD(SD)IGS, 150-200 g) were initially anesthetized with isoflurane in O2 by a mask and the surgical procedure was performed according to the method described by Bennett and Xie (1988). Briefly, the right sciatic nerves were loosely tied using ligatures. All experiments were conducted in accordance with the guidelines of the International Association for the Study of Pain. The behavioral tests were conducted at least 14 days postoperatively.
# The test compound was dissolved in saline and administered intraperitoneally at 30 mg/kg to animals in a volume of 3 mL/kg body weight.
# To test for thermal hyperalgesia, the thermal response was determined by the hindpaw withdrawal latency, using a plantar tester (UGO BASILE, Italy), and a modified method of Hargreaves et al. (1988). Rats were allowed to acclimate within plastic enclosures on a clear glass plate maintained at room temperature. A radiant heat source (intensity 90) was controlled with a timer and focused onto the plantar surface of the rat right hind paw encompassing the glabrous skin. Paw withdrawal stopped both heat source and timer. A maximal cut-off 30 sec was used to prevent tissue damage. Rats were assessed for thermal hyperalgesia predose (0 hr) and at 1, 4 and 8 hours after 30 mg/kg test compound administration.
# Data are expressed as mean±standard error of mean (SEM). The values of behavioral signs of neuropathic pain at various postoperative time points were compared with those of the preoperative control period by a repeated-measure One-way Analysis of Variance (followed by Dunnett's post-hoc test). P-values less than 0.05 were considered to be significant.
# [3] = biological target: T1, hDAT (human dopamine transporter) (Homo sapiens, UniProt Q01959); test: Inhibition of [125I]RTI-55 radioligand binding to hDAT in HEK293 cell membranes
# T1 construct: expressed in transfected cells; host or cells: HEK293 cells (ATCC), clonal, kept under puromycin selection
# [4] = system: littermate wild-type mice; test: Sleep parameters (EEG/EMG) in littermate wild-type mice; type: in vivo; conditions: for Duration of continuous wakefulness: resting period (ZT 2)
# Description: (§1) The polygraph signal (EEG (electroencephalography) and EMG (electromyography)) was captured with SleepSign (Kissei Comtech), and the sleep stage was visually scored with 10 sec epoch for wakefulness, non-REM sleep and REM sleep. Scoring criteria are: Wakefulness is characterized by desynchronized low-amplitude, mixed frequency (>4 Hz) EEG and high EMG activity. Rhythmic alpha (8-9 Hz) wave (with high EMG activities) may also appear. Non-REM is characterized by synchronized, high-amplitude, low-frequency (0.25-4 Hz) with reduced EMG activity (compared to wakefulness). EEG activity in REM sleep is similar to that in wakefulness, with desynchronized, mixed frequency low amplitude waves. Rhythmic alpha (8-9 Hz) wave with reduced EMG activities may also appear. […] activity during REM sleep is reduced even further and in many cases, completely absent. Some muscle twitching may be apparent in the EMG trace during REM sleep.
# (§2) Three drug doses of the test compound (50, 100 and 150 mg/kg PO) plus vehicle, was orally administered at ZT 2 (Zeitgeber time: 2 hours after light on) or ZT14 (Zeitgeber time: 2 hours after light off) and the effects on sleep was monitored for 6 hours after the drug administration (the sleep data was collected for 30 hours after the drug injection, and are available for further analysis). The doses for modafinil were 50 and 200 mg/kg PO (plus vehicle), and modafinil was also administered at ZT 2 and ZT 14.
# (§3) If the polygraph signals of some mice were not sufficient to score the sleep stage with accuracy (especially bad EMG), data from these animals were excluded, and the minimum of 5 animals (except for the highest dose of the test compound in wild-type mice in dark period, n=4) were included for the data analysis and number of animals were indicated in the figures.
# (§4) Effects of test compound and modafinil on the amount of wake, non-REM sleep, REM sleep (cumulative seconds), number of episodes for each sleep stage during 6 hours, mean wake/sleep-bout lengths (seconds) were analyzed in each animal and the mean of each parameter was calculated in each genotype. The effects of compounds on wake and sleep amounts are useful to evaluate the wake promoting potency, and the number of episodes for each sleep stage and the mean wake/sleep bout length are parameters for evaluating the sleep fragmentation. Amphetamine and modafinil, two main wake-promoting compounds currently used for the treatment of EDS associated with various etiologies (narcolepsy, idiopathic hypersomnia and secondary EDS), are known to increase wake time and prolong wake bout length in normal and EDS conditions.
# (§5) A comparison of the effects between hypocretin deficient and wild-type mice is very useful in determining if the wake-promotion of the test compound is dependent on the availability of hypocretins, and if there is a possible change in the sensitivity of the receptive mechanisms of test compound in narcoleptic mice due to the hypocretin ligand deficiency.
# [5] = biological target: T2, hSERT (human serotonin transporter) (Homo sapiens, UniProt P31645); test: Inhibition of [125I]RTI-55 radioligand binding to hSERT in HEK293 cell membranes
# T2 construct: expressed in transfected cells; host or cells: HEK293 cells (ATCC), clonal, kept under puromycin selection
# [6] = biological target: T3, hNET (human norepinephrine transporter) (Homo sapiens, UniProt P23975); test: cell-based; conditions: HEK-hNET cells; mean ± SEM; read-out: [3H]NE Uptake IC50
# T3 construct: expressed in transfected cells; host or cells: HEK293 cells (ATCC), clonal, kept under geneticin selection
# [7] = system: hypocretin cell ablated narcoleptic mice (prepororexin/ataxin-3 transgenic); test: Sleep parameters (EEG/EMG) in narcoleptic mice; type: in vivo; conditions: for Duration of continuous wakefulness: resting period (ZT 2)
# Description: as §1, §2, §3, §4, §5
# [8] = biological target: T1, hDAT (human dopamine transporter); test: Filtration assay for inhibition of [3H]dopamine uptake in HEK-hDAT cells; type: cell-based
# [9] = biological target: T3, hNET (human norepinephrine transporter); test: biochemical; type: binding; conditions: HEK-hNET cells, mean ± SEM
# [10] = resting period, PO, genotypes not separated
# T3 sequence (P23975 whole entry): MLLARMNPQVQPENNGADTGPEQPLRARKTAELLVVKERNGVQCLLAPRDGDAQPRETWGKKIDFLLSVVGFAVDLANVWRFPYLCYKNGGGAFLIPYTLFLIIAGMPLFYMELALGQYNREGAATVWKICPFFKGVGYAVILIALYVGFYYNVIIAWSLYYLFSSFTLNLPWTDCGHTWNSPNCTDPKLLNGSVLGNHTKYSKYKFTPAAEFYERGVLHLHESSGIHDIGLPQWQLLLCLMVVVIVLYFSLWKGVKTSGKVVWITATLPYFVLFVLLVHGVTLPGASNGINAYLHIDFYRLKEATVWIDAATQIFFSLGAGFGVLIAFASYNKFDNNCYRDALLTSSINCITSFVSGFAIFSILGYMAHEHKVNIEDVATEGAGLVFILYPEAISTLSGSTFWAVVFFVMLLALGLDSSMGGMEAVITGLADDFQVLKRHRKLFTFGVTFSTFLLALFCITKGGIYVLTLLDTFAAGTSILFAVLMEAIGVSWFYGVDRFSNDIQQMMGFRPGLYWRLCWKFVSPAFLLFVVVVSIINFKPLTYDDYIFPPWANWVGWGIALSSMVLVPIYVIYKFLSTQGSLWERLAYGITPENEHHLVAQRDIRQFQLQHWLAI
# T1 sequence (Q01959 whole entry): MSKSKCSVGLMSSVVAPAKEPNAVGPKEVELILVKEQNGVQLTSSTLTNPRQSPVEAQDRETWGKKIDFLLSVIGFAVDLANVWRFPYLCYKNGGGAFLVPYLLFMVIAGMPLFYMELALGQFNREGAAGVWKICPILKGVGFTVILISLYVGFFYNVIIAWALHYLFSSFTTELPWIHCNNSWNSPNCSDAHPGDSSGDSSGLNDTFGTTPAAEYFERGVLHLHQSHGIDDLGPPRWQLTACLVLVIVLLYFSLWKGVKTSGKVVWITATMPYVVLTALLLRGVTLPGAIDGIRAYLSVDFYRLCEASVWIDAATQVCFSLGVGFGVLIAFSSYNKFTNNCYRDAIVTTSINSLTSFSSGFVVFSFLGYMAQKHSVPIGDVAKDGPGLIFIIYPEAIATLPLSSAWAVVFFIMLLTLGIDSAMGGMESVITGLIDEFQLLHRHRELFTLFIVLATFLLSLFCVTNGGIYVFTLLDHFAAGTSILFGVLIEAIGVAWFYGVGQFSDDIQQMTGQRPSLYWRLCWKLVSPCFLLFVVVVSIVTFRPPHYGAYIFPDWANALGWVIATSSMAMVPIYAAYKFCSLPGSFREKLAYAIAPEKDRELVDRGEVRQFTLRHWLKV
# T2 sequence (P31645 whole entry): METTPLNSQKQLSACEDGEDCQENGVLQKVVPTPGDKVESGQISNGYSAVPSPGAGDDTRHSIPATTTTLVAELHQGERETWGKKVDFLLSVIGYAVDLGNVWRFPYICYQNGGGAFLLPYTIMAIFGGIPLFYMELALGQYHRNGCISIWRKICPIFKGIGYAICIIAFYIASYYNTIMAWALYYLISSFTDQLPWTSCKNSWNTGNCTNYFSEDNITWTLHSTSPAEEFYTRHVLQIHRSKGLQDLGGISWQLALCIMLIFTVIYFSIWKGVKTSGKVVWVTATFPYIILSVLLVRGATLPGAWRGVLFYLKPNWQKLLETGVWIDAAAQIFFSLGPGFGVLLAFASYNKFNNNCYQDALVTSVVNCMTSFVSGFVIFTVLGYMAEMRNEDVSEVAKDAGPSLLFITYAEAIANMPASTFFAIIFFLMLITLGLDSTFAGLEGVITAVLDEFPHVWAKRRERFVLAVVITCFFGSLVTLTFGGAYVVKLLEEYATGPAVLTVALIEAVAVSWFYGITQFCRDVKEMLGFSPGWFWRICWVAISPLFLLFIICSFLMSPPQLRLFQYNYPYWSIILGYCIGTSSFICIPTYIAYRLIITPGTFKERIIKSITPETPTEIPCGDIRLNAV
smiles,measurement,setting,value
"CC(N)Cc1ccccc1 (stereo not drawn) [Amphetamine, reference compound]","Locomotor, rearing and stereotypical activities relative to vehicle controls",[1]; 2 mg/kg SC,decreased
same,"Locomotor, rearing and stereotypical activities relative to vehicle controls",wild-type mice,increased
"NC(=O)OC[C@H](N)Cc1ccccc1 [Test Compound, O-carbamoyl-(D)-phenylalaninol]",Mean paw withdrawal latency,[2]; 0 hr (predose),5.17 ± 0.27 s
same,Mean paw withdrawal latency,[2]; 1 hr post-injection,6.33 ± 0.14 s
same,Mean paw withdrawal latency,[2]; 4 hr post-injection,6.06 ± 0.21 s
same,Mean paw withdrawal latency,[2]; 8 hr post-injection,5.63 ± 0.16 s
same,% of Antagonism (latency at time point / latency at 0 hr − 1) × 100,[2]; 1 hr post-injection,(22.3%^@)
same,% of Antagonism (latency at time point / latency at 0 hr − 1) × 100,[2]; 4 hr post-injection,(17.2%)
same,% of Antagonism (latency at time point / latency at 0 hr − 1) × 100,[2]; 8 hr post-injection,(8.8%)
same,Paw withdrawal latency to a thermal stimulus (in words),[2]; vs pre-injection (0 hr),significantly increased the paw withdrawal latency
same,Ki,[3],14.2 µM
same,Hill coefficient,"[3]; HEK-hDAT cells, mean ± SEM",−0.77 ± 0.12
same,Duration of continuous wakefulness,[4]; 50 mg/kg PO,up to 3 hours
same,Duration of continuous wakefulness,[4]; 100 mg/kg PO,≤ 4 h
same,Duration of continuous wakefulness,[4]; 150 mg/kg PO,≤ 5 h
same,Non-REM and REM sleep during the period of continuous wakefulness,"[4]; 50-150 mg/kg PO, resting period",completely suppressed
same,Wake-promoting effects,"[4]; active (dark) period (ZT 14), 50-150 mg/kg PO",only small effects were observed
same,Ki,[5],81.5 µM
same,Hill coefficient,"[5]; HEK-hSERT cells, mean ± SEM",−2.28 ± 0.05
same,IC50,[6],4.4 µM
same,Spontaneous activity compared with amphetamine,[1]; 100 mg/kg SC vs 2 mg/kg amphetamine,suppressed activities more efficiently than amphetamine
same,"Spontaneous activity (locomotor, rearing, stereotypical activities)","[1]; 10, 30, 100 mg/kg SC, 90 min post-injection",selectively reduced activity of the KO mice in a dose-dependent manner; also recorded: reduced activities in a dose-dependent fashion
same,Duration of continuous wakefulness,"[7]; narcoleptic mice, 50 mg/kg PO",up to 3 hours
same,Duration of continuous wakefulness,"[7]; narcoleptic mice, 100 mg/kg PO",≤ 4 h
same,Duration of continuous wakefulness,"[7]; narcoleptic mice, 150 mg/kg PO",≤ 5 h
same,Non-REM and REM sleep during the period of continuous wakefulness,"[7]; narcoleptic mice, 50-150 mg/kg PO, resting period",completely suppressed
same,Wake-promoting effects,"[7]; narcoleptic mice, active (dark) period (ZT 14), 50-150 mg/kg PO",much pronounced wake-promoting effects
same,Wake amounts,"[7]; narcoleptic mice, active period, 100 and 150 mg/kg PO",brought up to the levels of wild-type mice
same,Amounts of non-REM and REM sleep,"[7]; narcoleptic mice, active period, PO",brought down to the levels of wild-type mice
same,EEG patterns after administration,"[7]; resting period, 50-150 mg/kg PO, genotypes not separated",no abnormal EEG patterns
same,Effect on REM sleep,[7]; [10],potently reduced REM sleep
same,IC50,[8],2.9 µM
same,Hill coefficient,[9],−1.45 ± 0.34
same,Ki,[9]; read-out: [125I]RTI-55 Binding Ki,3.7 µM
"NC(=O)C[S+]([O-])C(c1ccccc1)c1ccccc1 (stereo not drawn) [modafinil, reference compound]",Wake amount versus wild-type baseline,"[7]; narcoleptic mice, active period, 200 mg/kg PO",did not bring the wake amount to that of the wild-type baseline levels
same,Wakefulness,"[7]; narcoleptic mice, active period, 50 and 200 mg/kg PO",dose-dependently increase wakefulness
same,Wake promoting effect compared with test compound,"[7]; resting period, 200 mg/kg PO, genotypes not separated",roughly corresponds to 50 mg/kg of test compound
same,Wake promoting effects,"[7]; resting period, 50 and 200 mg/kg PO, genotypes not separated",modest
same,Effect on REM sleep,[7]; [10],did not strongly reduce REM sleep
